The target of one test is T1, A2AAR (Homo sapiens, UniProt P29274).
T1 construct: expressed in transfected cells
Nature of the test: Competition radioligand binding, hA2AAR ([3H]ZM241385 or [3H]CGS21680). Conditions: human A2AAR, HEK-293 membranes, [3H]ZM241385 1.0 nM, 1 h 25 °C, mean ± SEM; read-out: Affinity, Ki, A2A. As for the experimental part:
(§1) The affinity of the amine congeners and other antagonists was measured using standard radioligand binding assays for hA1, A2A and A3ARs (Table 1).[1],[13],[14],[22] Membranes of human embryonic kidney (HEK)293 cells expressing the AR of interest were used in the assay. Primary amine congeners 6a–6d containing spacers of 2–5 methylenes were similar in terms of hA2AAR affinity (Ki 6–9 nM), with the butylamino congener 6c displaying the highest A2AAR selectivity in the series. The affinity of this compound for the hA3AR was determined to be 6.0 μM, with only slightly higher hA1AR affinity. Homologation to 6 methylenes in compound 6e lowered A2AAR affinity. […] No dependence of the affinity on the chain length was evident when comparing AlexaFluor647 conjugates 9 and 10.
Fig. 1 Antagonist radioligand ([^3H]2, 1.0 nM) binding inhibition curves for the hA2AAR for four antagonist fluorescent conjugates. Compound numbers: MRS7322 9, MRS7395 10, MRS7396 11 and MRS7416 12. Membranes from HEK-293 cells expressing the hA2AAR were used, and their incubation was performed for 1 h at 25 °C. Results are expressed as the mean ± SEM.
(§2) Cell culture for membrane binding assays and flow cytometry: HEK-293 cells stably expressing the A2AAR were grown in Dulbecco’s Modified Eagle’s Medium (DMEM) with 10% FBS, 100 units/ml penicillin, […] streptomycin, 2 mM L-glutamine and 0.500 mg/mL G418 Sulfate (Geneticin). […]
(§3) Radioligand binding assays: Cell membranes were prepared as reported.1
(§4) Binding assays were carried out using standard radioligands and membrane preparations from HEK-293 cells stably expressing the human (h) A1, A2A or A3ARs or mouse (m) A1, A2A or A3ARs. The radioligands used were: A1AR, [3H]8-cyclopentyl-1,3-dipropylxanthine 14; A2AAR, [3H]2; A3AR, [125I]N6-(4-amino-3-iodobenzyl)adenosine-5′-N-methyluronamide 16. The radioligand for archival A2AAR affinity data presented in Table 1 was [3H]2-[p-(2-carboxyethyl)phenyl-ethylamino]-5′-N-ethylcarboxamidoadenosine 15. Nonspecific binding was determined using 10 µM 8-[4-[[[[(2-aminoethyl)amino]carbonyl]methyl]oxy]phenyl]-1,3-dipropylxanthine 17 (A1AR and A2AAR) or 10 µM adenosine-5′-N-ethyluronamide 18 (A3AR). HEK-293 cells expressing recombinant mA1, A2A, or A3AR […]
(§5) Protein was determined as reported.2 In all the binding experiments, IC50 values and Ki values were calculated using GraphPad Prism software (San Diego, CA). Values are expressed as mean±SEM. […]
(§6) Med. Chem. Comm., 2015, 6:555-563.
(§7) 2. Bradford, M. M. A rapid and sensitive method for the quantitation of microgram quantities of protein utilizing the principle of protein -dye binding. Anal. Biochem. 1976, 72, 248-254.

Test [1] addresses T2, A1AR (Homo sapiens, UniProt P30542).
T2 construct: expressed in transfected cells
T2 sequence (P30542 1-326): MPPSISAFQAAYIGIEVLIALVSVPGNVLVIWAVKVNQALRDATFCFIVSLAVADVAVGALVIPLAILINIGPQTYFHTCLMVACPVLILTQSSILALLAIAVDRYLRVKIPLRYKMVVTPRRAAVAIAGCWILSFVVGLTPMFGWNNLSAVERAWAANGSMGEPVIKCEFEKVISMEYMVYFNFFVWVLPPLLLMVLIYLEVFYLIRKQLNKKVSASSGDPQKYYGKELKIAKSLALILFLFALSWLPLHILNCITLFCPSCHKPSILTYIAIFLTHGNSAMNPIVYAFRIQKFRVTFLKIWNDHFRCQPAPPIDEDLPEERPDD
As to the kind of experiment: Competition radioligand binding, hA1AR ([3H]DPCPX). Conditions: [3H]DPCPX 0.5 nM; for Ki: HEK-293 membranes, 1 h 25 °C, mean ± SEM, read-out: Affinity, Ki, A1; for inhibition at 10 µM: percent inhibition at 10 μM. The procedure:
as §1, with “10. […]” for “10.”
as §3, §4, §5, §6, §7

Test [2] has as its target T3, A3AR (Homo sapiens, UniProt P0DMS8).
T3 construct: expressed in transfected cells
T3 sequence (P0DMS8 1-318): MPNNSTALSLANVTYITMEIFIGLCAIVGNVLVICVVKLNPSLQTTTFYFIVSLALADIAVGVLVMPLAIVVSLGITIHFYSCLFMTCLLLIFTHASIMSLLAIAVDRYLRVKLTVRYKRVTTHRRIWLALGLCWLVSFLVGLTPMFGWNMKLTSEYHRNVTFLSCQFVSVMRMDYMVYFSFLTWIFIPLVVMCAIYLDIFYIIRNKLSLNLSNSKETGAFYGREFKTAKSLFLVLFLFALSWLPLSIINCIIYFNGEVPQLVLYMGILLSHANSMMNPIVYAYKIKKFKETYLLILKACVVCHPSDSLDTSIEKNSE
Nature of the test: Competition radioligand binding, hA3AR ([125I]I-AB-MECA). Particulars: for inhibition at 10 µM: percent inhibition at 10 μM, read-out: % inhib, A3. The procedure:
as §1, with “10. […]” for “10.”
as §3, §4, §5, §6, §7

For a further test, the target named is T4, 5HT2B receptor (Homo sapiens, UniProt P41595).
T4 construct: PDSP (screening service)
T4 sequence (P41595 whole entry): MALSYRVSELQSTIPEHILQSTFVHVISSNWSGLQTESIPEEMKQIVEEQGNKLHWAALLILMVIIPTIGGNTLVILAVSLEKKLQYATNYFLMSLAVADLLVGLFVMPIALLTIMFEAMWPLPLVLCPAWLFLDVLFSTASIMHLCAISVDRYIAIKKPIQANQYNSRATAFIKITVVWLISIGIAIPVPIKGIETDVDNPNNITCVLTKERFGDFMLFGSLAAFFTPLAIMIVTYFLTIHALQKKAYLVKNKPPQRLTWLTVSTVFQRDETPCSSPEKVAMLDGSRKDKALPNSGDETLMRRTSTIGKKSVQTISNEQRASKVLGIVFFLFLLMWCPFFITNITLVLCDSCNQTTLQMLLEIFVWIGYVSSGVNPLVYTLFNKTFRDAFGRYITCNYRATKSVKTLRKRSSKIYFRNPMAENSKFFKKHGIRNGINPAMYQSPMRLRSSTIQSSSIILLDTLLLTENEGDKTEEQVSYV
As to the kind of experiment: PDSP off-target radioligand binding, 5HT2B. Conditions: PDSP radioligand binding inhibition. As for the experimental part:
(§8) . Off-target binding activities at 45 diverse receptors were determined by PDSP[25] for selected compounds: 6c and 13 (ESI ^†). […]; 1.92 μM, 5HT2B receptor. Thus, the primary amine precursor of the fluorescent conjugates 10–12 was not promiscuous in its interaction with other proteins, i.e. this chemical series is not associated with pan-assay interference compounds.[26]
(§9) Chinese hamster ovary (CHO) cells stably expressing the human A2AAR were cultured in Dulbecco's Modified Eagle Medium (Mediatech, Manassas, VA) supplemented with 10% fetal bovine serum, 100 units/ml penicillin, 100 µg/ml streptomycin and 2 µmol/ml glutamine. Cells were plated in 96-well plates in 100 µl medium. After 24 h, the medium was removed and cells were washed three times with 100 µl DMEM, containing 50 mM HEPES, pH 7.4. Cells were treated with antagonists (or medium for control) in the presence of rolipram (10 µM) and adenosine deaminase (3 units/ml) and 5 min later with agonist for 20 min. The reaction was terminated by removal of the supernatant, and cells were lysed upon the addition of 100 µl of lysis buffer (0.3% Tween-20). cAMP was measured using ALPHAScreen cAMP kits (PerkinElmer, Boston, MA) as instructed by the manufacturer.
(§10) Refer to: http://pdspdb.unc.edu for full list of comprehensive screen at 45 targets.
(§11) 5HT2A serotonin receptor: […]

In a further test the target is T5, 5HT2A serotonin receptor (Homo sapiens, UniProt P28223).
T5 construct: PDSP (screening service)
T5 sequence (P28223 whole entry): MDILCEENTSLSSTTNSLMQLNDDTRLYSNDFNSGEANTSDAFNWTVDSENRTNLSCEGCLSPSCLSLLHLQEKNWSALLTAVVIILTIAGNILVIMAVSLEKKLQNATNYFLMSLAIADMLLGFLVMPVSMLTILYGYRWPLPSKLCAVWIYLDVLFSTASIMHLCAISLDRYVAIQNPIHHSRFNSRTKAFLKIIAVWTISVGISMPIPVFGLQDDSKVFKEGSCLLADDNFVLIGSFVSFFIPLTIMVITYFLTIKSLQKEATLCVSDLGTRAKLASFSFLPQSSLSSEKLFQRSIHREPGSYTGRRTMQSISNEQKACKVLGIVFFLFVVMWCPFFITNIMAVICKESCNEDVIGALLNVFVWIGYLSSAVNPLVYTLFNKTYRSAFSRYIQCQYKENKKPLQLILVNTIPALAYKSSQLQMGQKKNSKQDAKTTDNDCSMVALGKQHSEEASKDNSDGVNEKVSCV
Nature of the test: PDSP off-target radioligand binding, 5HT2A. Conditions: PDSP radioligand binding inhibition. The procedure: as §8, §9, §10, §11

For test [3], the target named is T3, A3AR. Also on record: method as in earlier work. Conditions: percent inhibition at 10 μM, 14 (Kumar et al. and Kecskés et al.); cited from earlier work.
In test [4] the target is T2, A1AR. Also on record: method as in earlier work. Particulars: percent inhibition at 10 μM, 14 (Kumar et al. and Kecskés et al.); cited from earlier work.
A further test concerns the target T6, mA1AR (Mus musculus, UniProt Q60612).
T6 construct: expressed in transfected cells; host or cells: HEK-293
T6 sequence (Q60612 1-326): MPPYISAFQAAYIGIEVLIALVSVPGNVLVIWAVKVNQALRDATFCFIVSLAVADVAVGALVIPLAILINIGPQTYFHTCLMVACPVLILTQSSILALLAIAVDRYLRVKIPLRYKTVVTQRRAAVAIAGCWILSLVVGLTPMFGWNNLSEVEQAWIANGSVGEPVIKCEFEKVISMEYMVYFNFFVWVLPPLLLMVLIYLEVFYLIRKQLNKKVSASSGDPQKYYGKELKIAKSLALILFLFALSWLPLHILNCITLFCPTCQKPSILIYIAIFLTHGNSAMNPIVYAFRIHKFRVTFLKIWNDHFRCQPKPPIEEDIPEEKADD
As to the kind of experiment: Competition radioligand binding, mA1AR. Particulars: mouse A1AR, percent inhibition at 10 μM. As for the experimental part: as §1, with “10. […]” for “10.”
as §3, §4, §5, §6, §7

A further test has as its target T7, mA2AAR (Mus musculus, UniProt Q60613).
T7 construct: expressed in transfected cells; host or cells: HEK-293
Nature of the test: Competition radioligand binding, mA2AAR. Particulars: mouse A2AAR, HEK-293 membranes, mean ± SEM; read-out: Affinity, Ki, A2A (m) (converted). As for the experimental part:
as §1, §2, §3, §4, §5, §6, §7

The target of the next test is T8, mA3AR (Mus musculus, UniProt Q61618).
T8 construct: expressed in transfected cells; host or cells: HEK-293
T8 sequence (Q61618 1-319): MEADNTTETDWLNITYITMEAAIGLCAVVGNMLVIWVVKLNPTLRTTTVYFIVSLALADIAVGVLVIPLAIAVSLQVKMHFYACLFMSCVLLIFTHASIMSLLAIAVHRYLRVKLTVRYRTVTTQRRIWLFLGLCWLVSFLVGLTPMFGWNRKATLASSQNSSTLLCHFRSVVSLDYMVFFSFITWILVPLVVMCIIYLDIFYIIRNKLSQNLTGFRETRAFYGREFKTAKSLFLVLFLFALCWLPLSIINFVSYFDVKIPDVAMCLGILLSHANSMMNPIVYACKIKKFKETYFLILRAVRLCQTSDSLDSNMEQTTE
Nature of the test: Competition radioligand binding, mA3AR. Particulars: mouse A3AR, percent inhibition at 10 μM; read-out: % inhib, A3 (m) (converted). The procedure: as §1, with “10. […]” for “10.”
as §3, §4, §5, §6, §7

[5] abbreviates: HEK-293 membranes, [125I]I-AB-MECA 0.2 nM, 1 h 25 °C, mean ± SEM, read-out: Affinity, Ki, A3.

Consider nine compounds from article PMC5729930, “Bitopic fluorescent antagonists of the A2A adenosine receptor based on pyrazolo[4,3-e][1,2,4]triazolo[1,5-c]pyrimidin-5-amine functionalized congeners” (MedChemComm, 2017).

SMILES strings stand for the structures. Read-outs that look alike come from different tables or passages of the source. Marks after values point to notes of the source that are not given here.

T1 sequence (P29274 whole entry): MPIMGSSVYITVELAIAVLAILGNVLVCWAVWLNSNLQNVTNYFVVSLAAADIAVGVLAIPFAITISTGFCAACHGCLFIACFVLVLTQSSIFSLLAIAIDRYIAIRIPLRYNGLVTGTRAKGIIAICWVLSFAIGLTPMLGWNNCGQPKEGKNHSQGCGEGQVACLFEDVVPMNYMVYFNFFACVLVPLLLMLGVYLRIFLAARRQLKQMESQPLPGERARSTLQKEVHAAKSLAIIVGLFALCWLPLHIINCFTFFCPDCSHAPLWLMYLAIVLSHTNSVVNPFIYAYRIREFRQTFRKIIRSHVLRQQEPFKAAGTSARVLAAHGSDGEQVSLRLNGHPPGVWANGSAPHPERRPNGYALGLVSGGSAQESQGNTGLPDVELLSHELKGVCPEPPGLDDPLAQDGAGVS
T7 sequence (Q60613 whole entry): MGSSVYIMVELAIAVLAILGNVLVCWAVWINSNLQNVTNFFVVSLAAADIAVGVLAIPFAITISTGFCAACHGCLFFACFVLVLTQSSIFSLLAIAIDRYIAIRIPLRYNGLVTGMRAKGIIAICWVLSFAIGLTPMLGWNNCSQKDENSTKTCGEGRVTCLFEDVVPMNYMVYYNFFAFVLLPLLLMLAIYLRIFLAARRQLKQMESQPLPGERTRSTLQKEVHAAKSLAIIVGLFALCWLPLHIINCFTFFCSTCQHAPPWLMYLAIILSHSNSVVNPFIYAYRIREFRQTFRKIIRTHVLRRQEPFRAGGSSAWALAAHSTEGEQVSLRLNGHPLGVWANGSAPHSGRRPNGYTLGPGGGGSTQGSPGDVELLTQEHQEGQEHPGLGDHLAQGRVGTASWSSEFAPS

On to `NCCCNC(=O)COc1ccc(CCCn2ncc3c2nc(N)n2nc(-c4ccco4)nc32)cc1` [6b], for which the Ki at A2AAR is 9.29 ± 7.92 nM; on A1AR [1], 1300 ± 350 nM; at A3AR [2] (setting [5]), 2170 ± 660 nM.

Regarding `NCCCCNC(=O)COc1ccc(CCCn2ncc3c2nc(N)n2nc(-c4ccco4)nc32)cc1` [6c], the Ki on A2AAR was determined as 6.46 ± 1.63 nM; at 5HT2B receptor it was 1920 nM; at 5HT2A serotonin receptor it was 3360 nM; at A1AR [1], 2390 ± 100 nM; on A3AR [2] (setting [5]), 5990 ± 2900 nM; at A3AR [2] (read-out: affinity for the hA3AR), 6000 nM.

For `NCCCCCNC(=O)COc1ccc(CCCn2ncc3c2nc(N)n2nc(-c4ccco4)nc32)cc1` [6d], the Ki was found to be 6.36 ± 3.58 nM on A2AAR, 1910 ± 120 nM on A1AR [1] and 656 ± 132 nM at A3AR [2] (setting [5]).

Consider `NCCCCCCNC(=O)COc1ccc(CCCn2ncc3c2nc(N)n2nc(-c4ccco4)nc32)cc1` [6e], for which the values for the Ki on A2AAR, on A1AR [1] and at A3AR [2] (setting [5]) were 22.8 ± 8.45 nM, 6500 ± 2830 nM and 2070 ± 850 nM, respectively.

Take `COc1ccc(CCCn2ncc3c2nc(N)n2nc(-c4ccco4)nc32)cc1` [compound 3, 5-amino-7-(3-(4-methoxy)phenylpropyl)-2-(2-furyl)pyrazolo[4,3-e]-1,2,4-triazolo[1,5-c]pyrimidine]: the “% inhib, A3” value on A3AR [3] is listed as “(67 ± 1%) ^c”. Moreover, the “% inhib, A1” value on A1AR [4] is recorded as “(35 ± 5%) ^c”.

Turning to `N=c1ccc2c(-c3ccc(C(=O)NCCNC(=O)COc4ccc(CCCn5ncc6c5nc(N)n5nc(-c7ccco7)nc65)cc4)cc3C(=O)O)c3ccc(N)c(S(=O)(=O)O)c3oc-2c1S(=O)(=O)O` [compound 5], the “% inhib, A3” value on A3AR [3] is “(4 ± 2%) ^c”. Besides, on A1AR [4], the “% inhib, A1” value is listed as “(20 ± 3%) ^c”.

On to `Nc1nc2c(cnn2CCCc2ccc(O)cc2)c2nc(-c3ccco3)nn12` [compound 7], for which the “% inhib, A3” value at A3AR [3] was “(34 ± 3%) ^c”. At A1AR [4], the “% inhib, A1” value is reported as “(66 ± 2%) ^c”.

As for `CC1(C)C(/C=C/C=C/C=C2/N(CCCS(=O)(=O)O)c3ccc(S(=O)(=O)O)cc3C2(C)CCCCCC(=O)NCCNC(=O)COc2ccc(CCCn3ncc4c3nc(N)n3nc(-c5ccco5)nc43)cc2)=[N+](CCCS(=O)(=O)O)c2ccc(S(=O)(=O)[O-])cc21` (stereo not drawn) [compound 9], the Ki at A2AAR was 332 ± 165 nM; at mA2AAR, 458 nM. Also, the inhibition at 10 µM at mA1AR is 3%; at A1AR [1] it was 13%; on mA3AR, 4%; at A3AR [2] ([125I]I-AB-MECA 0.2 nM) it was 21%.

With `CC1(C)C(/C=C/C=C/C=C2/N(CCCS(=O)(=O)O)c3ccc(S(=O)(=O)O)cc3C2(C)CCCCCC(=O)NCCCCNC(=O)COc2ccc(CCCn3ncc4c3nc(N)n3nc(-c5ccco5)nc43)cc2)=[N+](CCCS(=O)(=O)O)c2ccc(S(=O)(=O)[O-])cc21` (stereo not drawn) [compound 10], on A2AAR, the Ki amounted to 295 ± 176 nM. Also, the inhibition at 10 µM came to 20% at A1AR [1] and 21% on A3AR [2] ([125I]I-AB-MECA 0.2 nM).
